Tests used:
matrix vesicles (MV) = assay: Mineralization of matrix vesicles (MV) incubated in synthetic cartilage lymph (SCL), microplate-based biomineralization assay; type: biochemical, chicken
Method: Zn^2+ causes Anx-5 to bind to acidic phospholipids with even higher affinity than does Ca^2+; however, its effect is very different.
(§1) Mineral formation was measured by incubating MVs (40 μg protein/ml) or complex (60 μg/ml) in synthetic cartilage lymph and assayed by a microplate-based biomineralization modeling system and assay as described herein. MVs were isolated from chicken GP cartilage. The PS.Ca.Pi complex was synthesized from emulsions of PS prepared by sonication in a synthetic intracellular phosphate buffer. Where indicated, pure native placental human annexin 5 (Anx-H5) was added.
(§2) Incubation was in pH 7.5 SCL at 37° C., which follows a characteristic sigmoid pattern in which a definable lag period precedes discernible mineral formation. There then follows a period of rapid mineral formation, a transient period when the rate declines, and an extended period at a progressively slower rate.

Anx-H5-containing ACP = molecular target: T1, Anx-H5-containing ACP (Homo sapiens, UniProt P08758); assay: Mineral formation by Anx-H5-containing ACP in SCL; type: biochemical; details: low levels (5 μM) of Zn^2+ in SCL
T1 sequence (P08758 2-320 limits assumed): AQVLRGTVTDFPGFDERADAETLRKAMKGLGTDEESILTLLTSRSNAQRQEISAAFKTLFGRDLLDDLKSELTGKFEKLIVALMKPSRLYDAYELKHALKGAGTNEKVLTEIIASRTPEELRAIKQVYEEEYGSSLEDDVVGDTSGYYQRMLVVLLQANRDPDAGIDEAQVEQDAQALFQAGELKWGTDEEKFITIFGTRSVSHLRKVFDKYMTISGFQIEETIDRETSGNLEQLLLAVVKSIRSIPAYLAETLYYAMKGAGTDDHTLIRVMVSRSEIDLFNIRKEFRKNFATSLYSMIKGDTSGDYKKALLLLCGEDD

ACP = details: low levels of Zn^2+
Anx-A5 Ca^2+ channel = molecular target: T2, Anx-A5 Ca^2+ channel (Gallus gallus, UniProt P17153); assay: Ca^2+ channel currents of MV or purified Anx-A5 fused with planar PS.PE (1:1) bilayers; type: biochemical, avian; details: MV or purified Anx-A5 in planar PS.PE (1:1) bilayers
T2 construct: from tissue; host or cells: avian cartilage
Method: To determine if the inhibitory effect of Zn^2+ on MV calcification was due to interaction with Anx-A5, experiments were conducted to investigate the nature of the MV Ca^2+ channel. […] When MVs or purified Anx-A5 were fused with planar PS.PE (1:1) bilayers, a multiconductance Ca^2+ channel was evident, as shown in FIG. 6A. […] The finding that Anx-A5 Ca^2+ channel gating is modulated by Zn^2+ raised the possibility that it may be an important regulator of MV Ca^2+ channel activity in vivo. Thus, it was desirable to determine how Anx-5 helps promote MV mineralization and how Zn^2+ affects the structure of Anx-A5.

[1] = molecular target: T3, Anx-H5.PS.Ca.Pi complexes (Homo sapiens, UniProt P08758); assay: Kinetics of mineralization of Anx-H5 containing nucleators with or without phosphoserine; type: biochemical; details: 100 μM phosphoserine; both Anx-H5-containing ACP and PS.Ca.Pi complexes
T3 sequence (P08758 2-320 limits assumed): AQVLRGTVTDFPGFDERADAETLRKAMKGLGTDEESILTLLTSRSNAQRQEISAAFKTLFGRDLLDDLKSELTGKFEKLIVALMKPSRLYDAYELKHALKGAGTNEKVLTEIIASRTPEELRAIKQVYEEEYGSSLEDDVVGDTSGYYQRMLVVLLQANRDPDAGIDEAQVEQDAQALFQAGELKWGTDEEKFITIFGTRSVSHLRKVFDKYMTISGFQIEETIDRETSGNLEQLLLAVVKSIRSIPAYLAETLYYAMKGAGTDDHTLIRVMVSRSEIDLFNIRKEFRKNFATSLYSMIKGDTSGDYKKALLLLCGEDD
Description: Phosphoserine was examined as a test compound. Phosphoserine can occupy PS head-group binding sites in Anx-H5, acting as a competitive inhibitor of PS binding. […] Since Anx-H5 trimer formation occurs only on phospholipid bilayers, phosphoserine competes for PS binding sites in Anx-H5, interfering with trimer formation, and thereby inhibiting de novo mineralization.
FIG. 18 illustrates the results of in vitro assays showing the delay of onset of mineralization of Anx-H5 containing nucleators by incorporation of O-phospho-L-serine

[2] = test system: PS.PE.Ca.Pi and PS.Ca.Pi complexes; assay: Mineral formation by synthetic PS and PE containing Ca.Pi complexes in SCL; type: biochemical
Method: FIG. 15 illustrates the effect of Anx-H5 on mineral formation by synthetic PS and PE containing Ca.Pi complexes as determined through in vitro modeling of the system. Mineralization was measured by incubating the various complexes as shown (about 50 μg/ml) in SCL using a microplate-based biomineralization assay system. The complexes were prepared as described above in Example 3. Emulsions of PS or PS.PE (1:1) were generated by sonication to generate approximately 60 nm vesicles. Anx-H5 was added before CaCl2 was titrated to form the complex.

PS.Ca.Pi complex = assay: Mineral formation by synthetic PS.Ca.Pi complex seeded into SCL, microplate-based biomineralization assay; type: biochemical
Method: as §1, §2
Results are illustrated in FIGS. 9A and 9B. […] To document that the effect of avian Anx-A5 could be equally matched by human Anx-H5, the kinetics of mineral formation were examined when both avian MV and the Mg^2+-containing PS.Ca.Pi complex were seeded into SCL in the absence and presence of purified native human placental Anx H5. […]

In the case of `c1cnc2c(c1)ccc1cccnc12` [1,10-phenanthroline, reference compound], the “ability of Zn^2+-inhibited MV to mineralize” value (matrix vesicles (MV); metal ion chelator added to Zn^2+-inhibited MV) is reported as “restored the ability to mineralize”.

`[Zn+2]` [Zn^2+, zinc] was tested, and the “mineral formation by Anx-H5-containing ACP” value (Anx-H5-containing ACP) was “marked inhibition”, the MV mineralization (matrix vesicles (MV); low levels of Zn^2+ (5 μM) in SCL) was “completely inhibit” and the ACP-induced mineral formation (ACP) was “weak inhibition”. For the same molecule, the “Ca^2+ currents” value (Anx-A5 Ca^2+ channel) was “blocked”.

With `N[C@@H](COP(=O)(O)O)C(=O)O` [phosphoserine, O-phospho-L-serine] the “time needed for onset of mineralization” value [1] was “almost tripling”.

With “Anx-H5: pure native placental human annexin 5” the “effect on PS.PE.Ca.Pi-induced mineralization” value ([2]; Anx-H5 incorporated into PS.PE.Ca.Pi complex) was “overcome this inhibitory effect of PE”, the “effect on mineral formation of incorporation into PS.Ca.Pi complex” value ([2]; complexes about 50 μg/ml in SCL) was “obvious stimulatory effect” and the “ability of MV to induce and propagate mineral formation” value (matrix vesicles (MV); Anx-H5 added to freshly isolated MV) was “significantly enhanced”. For the same molecule, the “mineral formation induced by protein alone” value (PS.Ca.Pi complex; Anx-H5 by itself added to SCL, without PS) was “failed to induce any mineral formation”.

For “phosphatidylethanolamine [PE, reference compound]”, the “ability of PS.Ca.Pi to nucleate mineral formation” value ([2]; equimolar amounts incorporated into PS.Ca.Pi (PS.PE 1:1)) was “profound inhibition”.

B1: Anx-A5: avian annexin 5 (avian cartilage) (protein, UniProt P17153 1-321, looked up)
Annexin A5: MAKYTRGTVTAFSPFDARADAEALRKAMKGMGTDEETILKILTSRNNAQRQEIASAFKTLFGRDLVDDLKSELTGKFETLMVSLMRPARIFDAHALKHAIKGAGTNEKVLTEILASRTPAEVQNIKQVYMQEYEANLEDKITGETSGHFQRLLVVLLQANRDPDGRVDEALVEKDAQVLFRAGELKWGTDEETFITILGTRSVSHLRRVFDKYMTISGFQIEETIDRETSGDLEKLLLAVVKCIRSVPAYFAETLYYSMKGAGTDDDTLIRVMVSRSEIDLLDIRHEFRKNFAKSLYQMIQKDTSGDYRKALLLLCGGDDE
In the case of B1, the “activation of PS.Ca.Pi complex” value (PS.Ca.Pi complex; complex prepared from Mg^2+-containing phosphate buffer) is reported as “synergistically activates”.

Reference: patent US20090124579A1, “Systems and Methods For Determination of Compounds for Stimulation or Inhibition of Neocalcification” (UNIVERSITY OF SOUTH CAROLINA, priority 2007, published 2009)
